This note sets out measurements from patent US5304474A, “Hydrophobic peptide esters and amides” (Board of Regents, The University of Texas System, priority 1991, dated 1994).

Series [1] has as its system splenic NK function (YAC-1 tumor targets). Briefly: Spleen cell NK function against YAC-1 after tail-vein injection. The format is in vivo, C3H/HeJ mice. On the procedure:
(§1) Leu-Leu-OMe or Leu-Phe-OMe were suspended in PBS, pH 7.4. Then individual C3H/HeJ mice (25 gram size) were administered by tail-vein injection either 2.5×10^-5 moles (6.5 mg) of Leu-Leu-OMe, 2.5×10^-5 moles (7.1 mg) Leu-Phe-OMe, or an equal volume of the PBS diluent, this dose being about 1×10^-3 moles per kg. […] Subsequent to this quiescent period no difference in activity or appearance in the mice was noted. Two hours post-injection, the mice were sacrificed and their spleen cells were assayed for NK function in a standard 4 hour assay against YAC-1 tumor targets. In all mice, total cell recovery ranged […] spleen cells per animal. […] Thus, Leu-Leu-OMe or Leu-Phe-OMe caused a greater than 75% decrease in splenic lytic activity against YAC-1 tumor targets.

The nature of series [2]: Activity and appearance of mice post-injection. Type of series: in vivo, C3H/HeJ mice. Conditions: 15-30 minutes post-injection, about 1×10^-3 moles per kg tail-vein. How it is done: as §1
In another series the test system is NK cells. Kind of series: Loss of NK cells from PBM, anti-NK (leu 11b) staining. The format is cell-based, human. The note with it: 15 minute exposure, 2 hours at 37° C. (FIG. 6). On the procedure:
(§2) In the experiments depicted in FIG. 6, freshly isolated PBM (2.5×10^6 /ml PBS and 1g/l glucose) were incubated at room temperature with varying concentrations of Leu-Leu-OMe. After a 15 minute exposure to this compound, the cells were washed, incubated for 2 hours at 37° C. and then assessed for the percentage of remaining viable cells which were stained by anti-MP or anti-NK monoclonal antibodies. Preincubation with greater than 25-50 micromola Leu-Leu-OMe led to loss of NK cells.
(§3) Anti-MP monoclonal antibodies (63D3) and anti-NK monoclonal antibodies (leu 11b) were obtained from Becton Dickinson Monoclonal Center, lnc., Mountain View, Cal. The antibody staining and Fluorescence Activated Cell Sorter (FACS) procedure was that of Rosenberg et al. (1981) (J. Immunol. V 126, p 1473). Data are expressed as percent of antibody staining in control cells (mean±SEM, n=4).

The test system of series [3] is mononuclear phagocytes (MP). Briefly: Loss of MP from PBM, anti-MP (63D3) staining. Type of series: cell-based, human. Conditions: 15 minute exposure, 2 hours at 37° C. (FIG. 6). On the procedure:
as §2, §3

Series [4] relates to [^3 H]Leu-Leu-OMe uptake by PBL (facilitated transport). Kind of series: Competitive inhibition of [3H]Leu-Leu-OMe uptake. The format is cell-based, human. On the procedure: Human peripheral blood lymphocytes (PBL) were incubated in the presence of [^3 H]labeled Leu-Leu-OMe at 22° C. for varying lengths of time. The incubation mixture was then centrifuged through silicone oil to separate the cells from any unbound or non-internalized [^3 HLeu-Leu-OMe. […] At 37° C., levels of [^3 H]Leu-Leu-OMe accumulation by PBL were increased above those seen at 22° C. (see Table 4).

In another series the test system is B Cells. Briefly: Leu-Leu-OMe sensitivity of cell type. The format is cell-based, human.
For series [5], the target named is dipeptidyl peptidase I (DPPI) (Bos taurus, UniProt Q3ZCJ8). Kind of series: Dipeptidyl peptidase I catalyzed lysis of human RBC. The format is cell-based, bovine. The note with it: FIG. 12, FIG. 13. How it is done:
The following experiments were carried out to determine whether DPPI could generate a lytic product from Leu-Leu-OMe. In the experiment detailed in FIG. 12, ^51 Cr-labeled human erythrocytes (RBC) were incubated with varying concentrations of Leu-Leu-OMe alone or in the presence of purified bovine DPPI.
In the experiments detailed in FIG. 13, ^51 Cr-labeled RBC's were exposed to various dipeptide esters or amides in the presence or absence of purified DPPI. […] The first observation is probably related to the inability of this enzyme to catalyze transpeptidation of peptide esters containing D-stereoisomers of amino acids. The latter observations are likely to be related to the fact that polymers of Ser-Leu or Leu-Tyr are not hydrophobic and therefore unlikely to enter and disrupt cell membranes.

For a further series, the system named is spleen cells. Briefly: Donor cell viability and subsets after treatment. The format is cell-based, mice. The source says:
Female, 8-16-wk-old, C57BL/6J (B6) and (C57BL/6J x DBA/2J)F1 mice (B6D2F1) were used as donors and recipients, respectively. For some experiments B6 donors were […] 70×10^6 cells/ml either in phosphate-buffered saline (PBS) or in Leu-Leu-OMe dissolved in PBS. Leu-Leu-OMe was synthesized from leucyl-leucine as previously described (10). […]
Immediately after treatment with Leu-Leu-OMe, there was less than a 5% loss of viable donor cells.

Series [6] has as its system human umbilical vein endothelial cells. Briefly: 51Cr release toxicity assay.
Protocol: (§4) In some experiments, toxicity of Leu-Leu-OMe for a variety of cell populations was assessed by ^51 Cr release In assays where cells obtained from suspension culture were to be used, cells were labeled with Na2^51 CrO4 (ICN, Plainview, N.Y.) for 60-90 minutes at 37° C. and then washed three times. Cells were then suspended in PBS (2.5×10^6 /ml) and incubated in microtiter plates, 50 microL/well with indicated concentrations of Leu-Leu-OMe for 15 minutes at room temperature. […] Following ^51 Cr labeling, wells were thoroughly washed and varying concentrations of Leu-Leu-OMe added in 50 microL PBS and the plates incubated for 15 minutes at room temperature.
(§5) Following such initial serum-free incubations, 200 microL/well of medium RPMI containing 10% FBS were added and the plates incubated for another 4 hours prior to removal of 100 microliters of supernatant. Radioactivity in the supernatant was measured in an auto-gamma scintillation spectrometer (Packard Instrument Co., Downers Grove, Ill.). The percent specific release was calculated from the formula: [formula] in which maximal release refers to cpm obtained in wells containing 50% lysing agent (American Scientific Products, McGraw Park, Ill.) and spontaneous release refers to cpm released by cells incubated in control medium in the absence of Leu-Leu-OMe or the lysing agent.
Series [7] deals with renal cell carcinoma line, Currie. Briefly: 51Cr release toxicity assay.
Protocol: as §4, §5
The subject of the next series is human dermal fibroblasts. Briefly: 51Cr release toxicity assay.
[8] abbreviates: following 3-h incubation at 37° C.

“Also recorded” adds a separate entry of the source.

As a reminder, the inhibition is the share of the control response that was lost under treatment. A low value points to little suppression.

Chain of dipeptidyl peptidase I (DPPI) (Q3ZCJ8 231-394 limits assumed): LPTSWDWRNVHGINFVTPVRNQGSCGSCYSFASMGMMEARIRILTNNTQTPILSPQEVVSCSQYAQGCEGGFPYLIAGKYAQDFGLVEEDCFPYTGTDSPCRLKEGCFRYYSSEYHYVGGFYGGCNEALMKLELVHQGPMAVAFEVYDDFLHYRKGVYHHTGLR
Chain of dipeptidyl peptidase I (DPPI) (Q3ZCJ8 25-134 limits assumed): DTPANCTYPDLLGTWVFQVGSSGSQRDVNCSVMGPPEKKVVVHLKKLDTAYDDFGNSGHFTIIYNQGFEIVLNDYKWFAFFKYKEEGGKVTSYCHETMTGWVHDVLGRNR
Chain of dipeptidyl peptidase I (DPPI) (Q3ZCJ8 395-463 limits assumed): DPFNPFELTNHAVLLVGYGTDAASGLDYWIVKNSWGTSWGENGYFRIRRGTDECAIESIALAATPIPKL
Protocol for human dermal fibroblasts: as §4, §5

As to `COC(=O)[C@H](CC(C)C)NC(=O)[C@@H](N)CC(C)C` [Leu-Leu-OMe, L-leucyl-L-leucine methyl ester], the “Percent lysis of target cells” value worked out at 2.37% in [1] (E:T 25:1, 2.5×10^-5 moles per mouse tail-vein, 2 hours post-injection, Control 8.29); 4.58% in series [1] (E:T 50:1, same dosing, Control 12.88); 7.12% in [1] (E:T 100:1, same dosing, Control 20.60); 12.77% in [1] (E:T 200:1, same dosing, Control 29.29). Also, in series [1] (about 1×10^-3 moles per kg tail-vein), the “decrease in splenic lytic activity against YAC-1 tumor targets” value is on record as “greater than 75%”. Further, in [2], the “activity and appearance post-injection” value is “exhibited decreased activity and an apparent increase in sleep”. Further, the “preincubation concentration leading to loss of NK cells” value in the series on NK cells lay in the range of 25 to 50 µM. Besides, the “loss of MP from PBM, in words” value in series [3] is recorded as “did not deplete MP from PBM; also recorded: higher concentrations of Leu-Leu-OMe caused loss of MP”. Also, in series [4], the “competitive inhibition of [3H]Leu-Leu-OMe uptake, in words” value is recorded as “competitively inhibited”. The inhibition at 250 µM in [4] (Homo sapiens, unlabeled compound 250 microM, [3H]Leu-Leu-OMe 10 microM (Table 5)) was found to be 72%. The “Leu--Leu--OMe Sensitivity (LD50)” value (in the series on B Cells; in series [6] (Endothelial Cells); in [7] (Renal Cell Carcinoma)) was above 500 micro-M throughout. In addition, the “RBC lysis in the presence of purified DPPI, in words” value in series [5] was “RBC lysis occurs”. Also, the “decrease in number of Lyt-2^+ spleen cells” value in the series with spleen cells (setting [8]) is listed as “more than 65%”. Also, the “number of L3T4^+ cells” value in the series on spleen cells (setting [8]) is “no alteration in the number of L3T4^+ cells”. Besides, the “loss of viable donor cells” value in the series on spleen cells (immediately after treatment) is listed as below 5%. The 51Cr release result (in series [6]; in series [7]; in the series with human dermal fibroblasts) was “no significant Leu-Leu-OMe induced ^51 Cr release” each time. The subsequent proliferative capacity entry (in [6] (500 micromolar); in series [7] (500 micromolar); in the series on human dermal fibroblasts (500 micromolar)) was “had no discernible effect on subsequent proliferative capacity” throughout.
